# Laboratory results as given in patent publication US7230011B2, “Benzenesulfonic acid indol-5-yl esters as antagonists of the 5ht6 receptor” (Eli Lilly and Company, priority 2002, dated 2007).
# Like-named read-outs stand apart in the source and are kept apart here.
# Experiments:
# 5-HT2A receptor = 5-HT2A receptor (Homo sapiens, UniProt P28223); conditions: 5-HT6 versus 5-HT2A; cited from earlier work
# 5-HT6 receptor = 5-HT6 receptor (Homo sapiens, UniProt P50406); conditions: 5-HT6 receptor, cited from earlier work
# [1] = cited from earlier work; for pharmacokinetics: in words
# yawning behavior = conditions: in vivo; cited from earlier work
# [2] = system: glutamate release in the prefrontal cortex; conditions: 10 mg/kg, sc; cited from earlier work
# Morris water maze = conditions: in vivo; cited from earlier work
# aged rats = conditions: cited from earlier work
# stretching behavior = conditions: cited from earlier work; for block of stretching behavior induced by Ro 04-6790: methyl-scopolamine at doses known to be peripherally selective
# Male Sprague-Dawley rats = conditions: s.c., six-hour delay
# object recognition test = conditions: in vivo; cited from earlier work
# [3] = system: rats with unilateral nigrostriatal 6-OH-DA lesions; conditions: cited from earlier work
# Chain of 5-HT6 receptor (P50406 whole entry): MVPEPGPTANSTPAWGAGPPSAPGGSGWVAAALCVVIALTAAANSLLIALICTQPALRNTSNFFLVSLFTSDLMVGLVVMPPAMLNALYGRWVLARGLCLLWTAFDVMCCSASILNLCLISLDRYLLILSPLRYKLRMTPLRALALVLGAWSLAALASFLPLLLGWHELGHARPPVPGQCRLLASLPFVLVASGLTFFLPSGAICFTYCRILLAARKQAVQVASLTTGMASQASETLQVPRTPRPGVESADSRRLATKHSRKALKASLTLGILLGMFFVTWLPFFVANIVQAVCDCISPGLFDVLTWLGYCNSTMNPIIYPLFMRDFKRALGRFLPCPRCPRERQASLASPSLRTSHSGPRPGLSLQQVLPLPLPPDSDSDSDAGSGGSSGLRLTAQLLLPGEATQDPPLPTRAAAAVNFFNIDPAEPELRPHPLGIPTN
# Chain of 5-HT2A receptor (P28223 whole entry): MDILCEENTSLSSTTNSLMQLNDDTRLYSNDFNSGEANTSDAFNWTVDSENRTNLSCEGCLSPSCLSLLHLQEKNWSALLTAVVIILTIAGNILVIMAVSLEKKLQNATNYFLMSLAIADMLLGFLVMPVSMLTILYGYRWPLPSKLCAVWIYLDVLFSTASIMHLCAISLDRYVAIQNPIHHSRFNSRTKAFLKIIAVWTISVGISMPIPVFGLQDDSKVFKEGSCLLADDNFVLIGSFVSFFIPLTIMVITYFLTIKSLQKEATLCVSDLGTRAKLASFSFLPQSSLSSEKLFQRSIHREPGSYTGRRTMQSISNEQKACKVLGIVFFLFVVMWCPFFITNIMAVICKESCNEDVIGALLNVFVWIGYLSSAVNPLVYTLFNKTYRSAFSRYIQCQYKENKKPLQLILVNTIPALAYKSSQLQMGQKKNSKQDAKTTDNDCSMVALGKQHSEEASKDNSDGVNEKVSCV
compound,measurement,setting,value
"CCc1[nH]c2ccc(OC)cc2c1CCN(C)C [N,N-dimethyl-2-ethyl-5-methoxytryptamine]",selectivity versus the 5-HT2A receptor,5-HT2A receptor,3.5 fold
same,Ki,5-HT6 receptor,81 nM
CNc1cc(NS(=O)(=O)c2ccc(N)cc2)cc(NC)n1 [Ro 63-0563],pharmacokinetics,[1],poor pharmacokinetics
same,Ki,5-HT6 receptor; read-out: Ki,12 nM
"COc1ccc(NS(=O)(=O)c2sc3ccc(Cl)cc3c2C)cc1N1CCNCC1 [SB-271,046]",yawning behavior induced by physostigmine,yawning behavior,potentiated the yawning behavior
same,glutamate release in the prefrontal cortex,[2],increases glutamate release
same,performance in the Morris water maze,Morris water maze,improved performance
same,spatial alternation operant behavior test,aged rats,improvements
same,bioavailable,[1]; in vivo,80%
"CN1[C@@H]2C[C@@H](OC(=O)[C@H](CO)c3ccccc3)C[C@H]1[C@@H]1O[C@@H]12 [Scopolamine, scopolamine]",block of stretching behavior induced by Ro 04-6790,stretching behavior,blocked
"Nc1c2c(nc3ccccc13)CCCC2 [Tacrine, tacrine]",retention,Male Sprague-Dawley rats; 3 mg/kg,not
same,retention,Male Sprague-Dawley rats; 10 mg/kg,significantly improved retention
CN1[C@@H]2CC[C@H]1C[C@@H](OC(=O)C(CO)c1ccccc1)C2 (some centres unmarked) [atropine],block of yawning and stretching behavior induced by antisense oligonucleotides targeting the 5-HT6 receptor,stretching behavior; antisense icv to rats,blocked
same,block of stretching behavior induced by Ro 04-6790,stretching behavior,blocked
Ro 04-6790,scopolamine induced performance deficits in the object recognition test,object recognition test,reversed scopolamine induced performance deficits
same,rotational behavior induced by L-DOPA or amphetamine,"[3]; rat, in vivo",did not block
same,rotation behavior induced by scopolamine,"[3]; rats, unilateral nigrostriatal 6-OH-DA lesions",block the rotation behavior
same,stretching behavior,"stretching behavior; rat, in vivo",induced stretching behavior in a dose-dependent manner
same,pharmacokinetics,[1],poor pharmacokinetics
same,Ki,5-HT6 receptor; read-out: Ki,50 nM
